# Where two headings read alike, the source gives them in different places.
# How the values were obtained:
# human NR1/NR2A = human NR1/NR2A (Homo sapiens (Human), UniProt Q05586+Q12879); test: NR2A antagonist activity: calcium influx (Fluo-4) assay in HEK293 cells; format: cell-based
# Experimental: Activation of the NR2A or NR2B subtype of NMDA receptor with glutamate as an agonist and glycine co-agonist on these cells results in calcium influx, which can be monitored with fluorescent indicator Fluo-4.
# For experiments, the cells were seeded onto poly-D-lysine-coated 96-well black plates with clear bottom (Corning) at a density of ˜50,000 cells/well. After overnight culture, the growth medium was removed from the wells and the cells were incubated at 37° C. for 60 minutes in Hanks buffer containing 4 μM fluo-4-AM (Invitrogen) and 0.1% bovine serum albumin (BSA). After dye-loading, the cells were washed three times with Hanks buffer and incubated for 10 minutes at room temperature with various concentrations of test compounds prepared in Hanks buffer with 0.1% BSA. The cell plates were placed onto an FDSS Cell fluorescence reader (Hamamatsu). After 20 seconds of reading background fluorescence, agonist glutamate at final 100 µM and co-agonist glycine at final 50 μM were added to the cells to activate the receptor, and the resulting fluorescence changes were recorded and quantified. Based on the changes in fluorescence intensity, the pharmacological effect of test compounds was analyzed and the IC50 values derived from a non-linear least squares fitting of the concentration-dependent response to a standard logistic equation using Prism (Graphpad Software, Inc.): Amplitude=Max Amplitude/(1+(IC50/[antagonist])^n).
# hERG channel = hERG channel (Homo sapiens (Human), UniProt Q12809); test: hERG channel inhibition, whole cell patch clamp in HEK293 cells; format: cell-based; conditions: human, HEK293 cells stably expressing hERG channel, pH 7.35; 10 μM
# Experimental: The assay was performed on hERG channel stably expressed in HEK293 cells. The cells were cultured at 37° C. in a humidified CO2 incubator in the growth medium consisting of DMEM, 10% fetal bovine serum and antibiotics. Prior to the assay, the cells were seeded onto a 12-mm PDL-coated glass coverslip and cultured in a 35-mm Petri dish. After 16 to 40 hours culture, the coverslip was transferred into the chamber of OctaFlow perfusion system (ALA Instrument) and under a constant flow of extracellular solution (140 mM NaCl, 4 mM KCl, 1 mM MgCl2, 2 mM CaCl2, 10 mM HEPES, 10 mM D-glucose, pH 7.35, osmolarity 290). Whole cell patch clamping was performed with a glass micropipette filled with intracellular solution (120 mM KCl, 1.75 mM MgCl2, 5.4 mM CaCl2, 10 mM HEPES, 10 mM EGTA, and 4 mM ATP-K2, pH 7.2, osmolarity 310). Giga-seal was maintained during the test. The voltage control and current measurement were carried out using Axon amplifier 700B, Digidata 1440A and CLAMPEX10 software (Molecular Devices). Whole-cell hERG currents were recorded following the Petroski protocol: the cell was held at −80 mV, and the voltage step jumped from −80 to 30 mV and stay for 2 seconds with a 20-millisecond prepulse at −40 mV. After depolarization, the voltage was decreased to −40 mV and stay for 2 seconds, and returned back to −80 mV. Test compound was applied by quartz capillary tubes tip (200 m inner diameter), and the flow rate was controlled at 2-3 mL/min with OctaFlow perfusion system. Different concentrations of the compound were applied to the cells for 5 minutes and the hERG current was measured three times before, during and after compound treatment. The data were analyzed using Clampfit 10 software (Molecular Devices) to generate IC50 values.
# CYP2D6 = CYP2D6 (Homo sapiens (Human), UniProt P10635); test: CYP P450 enzyme inhibition in pooled human liver microsomes (dextromethorphan probe); format: in vitro ADME; conditions: human, pooled human liver microsomes, pH 7.4, probe dextromethorphan, 5 μM; 10 μM; read-out: CYP2D6 Inhibiton at 10 μM
# Experimental: Test compound concentration-dependent response studies were performed in triplicate.
# human NR1/NR2B = human NR1/NR2B (Homo sapiens (Human), UniProt Q05586+Q13224); test: NR2B antagonist activity: calcium influx (Fluo-4) assay in HEK293 cells; format: cell-based; conditions: read-out: NR2B IC50
# Outline: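 HEK293 cells expressing NR1/NR2A or NR1/NR2B, loaded with fluo-4-AM, preincubated 10 min at room temperature with compound in Hanks buffer/0.1% BSA.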
# [1] = 18 patients, 6-19 years of age; cited from earlier work
# [2] = after 8 weeks of treatment; cited from earlier work
# [3] = single subcutaneous administration, highest dose tested; cited from earlier work
# [4] = Table 1.1B, read-out: NR2A IC50
# hERG channel, sequence (Q12809 whole entry): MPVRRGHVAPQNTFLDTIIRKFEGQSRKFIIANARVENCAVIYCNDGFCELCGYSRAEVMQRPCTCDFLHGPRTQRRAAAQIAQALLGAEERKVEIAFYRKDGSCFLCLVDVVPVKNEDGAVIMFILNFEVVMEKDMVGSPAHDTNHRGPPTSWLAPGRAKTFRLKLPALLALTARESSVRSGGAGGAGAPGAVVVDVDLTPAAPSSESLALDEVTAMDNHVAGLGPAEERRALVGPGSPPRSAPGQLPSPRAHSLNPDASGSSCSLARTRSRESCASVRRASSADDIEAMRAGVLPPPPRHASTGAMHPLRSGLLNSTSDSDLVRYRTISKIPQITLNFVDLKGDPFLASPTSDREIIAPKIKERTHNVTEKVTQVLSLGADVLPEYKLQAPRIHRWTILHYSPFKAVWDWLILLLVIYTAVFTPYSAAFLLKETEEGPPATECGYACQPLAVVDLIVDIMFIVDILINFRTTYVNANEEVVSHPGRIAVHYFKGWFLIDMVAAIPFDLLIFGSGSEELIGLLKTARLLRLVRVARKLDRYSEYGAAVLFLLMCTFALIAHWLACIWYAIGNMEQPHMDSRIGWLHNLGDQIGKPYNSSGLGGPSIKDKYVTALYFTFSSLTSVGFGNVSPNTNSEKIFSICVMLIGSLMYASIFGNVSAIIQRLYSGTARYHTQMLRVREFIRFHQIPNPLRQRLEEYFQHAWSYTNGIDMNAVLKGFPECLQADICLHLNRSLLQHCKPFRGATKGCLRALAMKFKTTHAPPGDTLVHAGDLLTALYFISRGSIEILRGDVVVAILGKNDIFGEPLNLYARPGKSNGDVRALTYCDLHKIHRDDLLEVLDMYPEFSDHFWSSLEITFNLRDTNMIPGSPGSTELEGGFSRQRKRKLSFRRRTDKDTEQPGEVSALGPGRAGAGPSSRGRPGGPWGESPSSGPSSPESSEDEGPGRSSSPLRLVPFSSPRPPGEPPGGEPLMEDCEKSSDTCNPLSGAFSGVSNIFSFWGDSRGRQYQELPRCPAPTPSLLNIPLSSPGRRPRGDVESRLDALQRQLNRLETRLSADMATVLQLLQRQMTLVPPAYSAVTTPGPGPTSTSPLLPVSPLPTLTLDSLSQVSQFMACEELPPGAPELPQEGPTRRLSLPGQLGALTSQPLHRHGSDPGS
# human NR1/NR2A, sequence (Q12879 23-1464, other chains not shown): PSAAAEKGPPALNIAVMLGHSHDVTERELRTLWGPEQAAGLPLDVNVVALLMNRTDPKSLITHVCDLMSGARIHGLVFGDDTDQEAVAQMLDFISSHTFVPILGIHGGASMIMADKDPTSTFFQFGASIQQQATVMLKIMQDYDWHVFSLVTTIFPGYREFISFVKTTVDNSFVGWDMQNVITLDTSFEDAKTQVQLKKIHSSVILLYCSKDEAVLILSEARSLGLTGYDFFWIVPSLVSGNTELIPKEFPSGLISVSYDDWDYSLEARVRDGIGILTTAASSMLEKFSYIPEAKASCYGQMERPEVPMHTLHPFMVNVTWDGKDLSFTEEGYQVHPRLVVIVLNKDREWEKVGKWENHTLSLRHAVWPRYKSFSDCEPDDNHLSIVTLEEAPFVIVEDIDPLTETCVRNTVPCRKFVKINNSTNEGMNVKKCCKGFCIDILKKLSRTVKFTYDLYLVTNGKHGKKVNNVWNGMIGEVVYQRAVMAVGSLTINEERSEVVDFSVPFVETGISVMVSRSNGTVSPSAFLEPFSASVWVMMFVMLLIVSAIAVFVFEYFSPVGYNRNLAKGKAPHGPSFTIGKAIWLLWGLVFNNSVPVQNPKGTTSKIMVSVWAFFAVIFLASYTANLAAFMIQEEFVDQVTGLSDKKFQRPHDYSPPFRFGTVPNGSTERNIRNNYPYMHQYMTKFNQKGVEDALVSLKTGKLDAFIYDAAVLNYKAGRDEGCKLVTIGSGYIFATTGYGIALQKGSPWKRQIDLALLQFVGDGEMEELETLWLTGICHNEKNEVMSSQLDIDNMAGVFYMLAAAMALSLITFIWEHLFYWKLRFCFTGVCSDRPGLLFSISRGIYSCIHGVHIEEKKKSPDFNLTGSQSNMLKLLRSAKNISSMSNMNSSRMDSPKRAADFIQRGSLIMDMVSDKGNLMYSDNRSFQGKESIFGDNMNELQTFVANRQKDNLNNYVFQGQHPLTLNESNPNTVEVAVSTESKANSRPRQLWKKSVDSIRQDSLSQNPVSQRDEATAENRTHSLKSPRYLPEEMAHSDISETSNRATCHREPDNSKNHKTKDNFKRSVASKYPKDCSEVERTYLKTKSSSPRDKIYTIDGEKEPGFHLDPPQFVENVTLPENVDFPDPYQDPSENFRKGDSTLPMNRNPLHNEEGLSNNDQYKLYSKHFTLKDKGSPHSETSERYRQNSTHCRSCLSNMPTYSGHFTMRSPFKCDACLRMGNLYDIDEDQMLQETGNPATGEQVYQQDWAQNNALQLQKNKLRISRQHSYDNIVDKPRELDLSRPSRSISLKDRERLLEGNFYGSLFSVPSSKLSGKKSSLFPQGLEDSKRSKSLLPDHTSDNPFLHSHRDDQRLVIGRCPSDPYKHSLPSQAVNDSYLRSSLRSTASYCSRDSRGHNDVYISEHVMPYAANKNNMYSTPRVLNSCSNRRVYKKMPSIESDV
# CYP2D6, sequence (P10635 whole entry): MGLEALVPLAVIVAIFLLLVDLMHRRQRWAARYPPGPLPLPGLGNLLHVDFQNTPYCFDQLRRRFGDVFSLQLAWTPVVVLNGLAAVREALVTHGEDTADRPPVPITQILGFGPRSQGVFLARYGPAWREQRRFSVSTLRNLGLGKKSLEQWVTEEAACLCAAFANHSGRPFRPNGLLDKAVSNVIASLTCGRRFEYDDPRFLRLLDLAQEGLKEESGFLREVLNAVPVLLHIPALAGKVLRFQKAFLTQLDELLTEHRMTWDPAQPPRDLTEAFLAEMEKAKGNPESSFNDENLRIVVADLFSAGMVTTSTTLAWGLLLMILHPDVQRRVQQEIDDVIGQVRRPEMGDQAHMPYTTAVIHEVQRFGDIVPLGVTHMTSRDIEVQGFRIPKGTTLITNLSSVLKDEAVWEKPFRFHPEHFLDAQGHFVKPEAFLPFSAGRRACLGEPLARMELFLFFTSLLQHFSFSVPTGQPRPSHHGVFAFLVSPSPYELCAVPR
# human NR1/NR2B, sequence (Q13224 27-1484, other chains not shown): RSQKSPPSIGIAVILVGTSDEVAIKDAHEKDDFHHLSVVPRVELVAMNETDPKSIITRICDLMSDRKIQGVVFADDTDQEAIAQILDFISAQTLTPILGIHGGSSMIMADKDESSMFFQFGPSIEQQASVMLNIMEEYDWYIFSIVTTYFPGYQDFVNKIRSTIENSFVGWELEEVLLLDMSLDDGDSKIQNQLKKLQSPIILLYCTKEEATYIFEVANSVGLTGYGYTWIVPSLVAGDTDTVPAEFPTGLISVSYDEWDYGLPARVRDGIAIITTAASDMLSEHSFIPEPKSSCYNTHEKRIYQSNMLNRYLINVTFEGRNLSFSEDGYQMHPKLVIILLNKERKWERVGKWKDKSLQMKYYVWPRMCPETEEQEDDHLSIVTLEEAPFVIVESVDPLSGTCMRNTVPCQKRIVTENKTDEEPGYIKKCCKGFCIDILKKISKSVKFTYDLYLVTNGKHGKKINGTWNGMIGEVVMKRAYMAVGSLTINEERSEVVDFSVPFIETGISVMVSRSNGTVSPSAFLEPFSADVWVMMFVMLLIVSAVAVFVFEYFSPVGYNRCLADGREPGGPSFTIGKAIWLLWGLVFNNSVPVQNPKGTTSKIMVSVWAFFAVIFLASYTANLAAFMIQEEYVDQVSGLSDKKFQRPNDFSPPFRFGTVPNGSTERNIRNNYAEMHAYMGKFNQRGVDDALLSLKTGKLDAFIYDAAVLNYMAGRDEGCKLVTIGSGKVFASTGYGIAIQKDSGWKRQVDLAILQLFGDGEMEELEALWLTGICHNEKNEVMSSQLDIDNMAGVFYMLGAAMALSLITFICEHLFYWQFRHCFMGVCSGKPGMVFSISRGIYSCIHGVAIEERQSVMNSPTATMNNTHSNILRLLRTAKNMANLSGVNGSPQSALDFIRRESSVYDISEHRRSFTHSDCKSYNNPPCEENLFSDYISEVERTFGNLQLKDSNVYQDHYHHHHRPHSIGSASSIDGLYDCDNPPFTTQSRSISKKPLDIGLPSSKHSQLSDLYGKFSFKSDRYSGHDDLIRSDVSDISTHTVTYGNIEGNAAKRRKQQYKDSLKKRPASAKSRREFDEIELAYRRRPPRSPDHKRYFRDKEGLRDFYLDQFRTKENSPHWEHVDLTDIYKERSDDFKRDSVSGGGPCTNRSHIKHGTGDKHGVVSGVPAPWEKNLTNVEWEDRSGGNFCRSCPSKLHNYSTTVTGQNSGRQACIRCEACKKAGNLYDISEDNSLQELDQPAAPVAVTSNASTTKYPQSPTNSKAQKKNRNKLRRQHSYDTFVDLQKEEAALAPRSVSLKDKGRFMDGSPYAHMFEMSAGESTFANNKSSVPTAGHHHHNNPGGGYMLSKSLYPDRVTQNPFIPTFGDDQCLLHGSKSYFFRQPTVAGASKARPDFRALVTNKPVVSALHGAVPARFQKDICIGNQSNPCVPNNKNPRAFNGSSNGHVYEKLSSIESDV
smiles,measurement,setting,value
Cc1ccc(COC(=O)N2CC[C@H](CNc3nc4ccccn4n3)C(F)(F)C2)cc1 [E1-9.2^B′],IC50,human NR1/NR2A; [4],> 10000 nM
same,"inhibition at 5 min, 10 µM",hERG channel,38%
same,"inhibition at 10 min, 10 µM",CYP2D6,14%
Cc1ccc(COC(=O)N2CC[C@H](CNc3ncc4cn[nH]c4n3)C(F)(F)C2)cc1 [E1-8.2^B′],IC50,human NR1/NR2A; [4],> 10000 nM
same,"inhibition at 5 min, 10 µM",hERG channel,57%
same,"inhibition at 10 min, 10 µM",CYP2D6,83%
CCc1ccc(COC(=O)N2CC[C@H](CNc3nccn4cnnc34)C(F)(F)C2)cc1 [E1-1.5^B′],IC50,human NR1/NR2A; [4],> 10000 nM
same,"inhibition at 5 min, 10 µM",hERG channel,46%
same,IC50,human NR1/NR2B; Table 1.1B,9.6 nM
same,IC50,human NR1/NR2B; Table 1.3B,9.6 nM
same,IC50,human NR1/NR2B; Table 1.4B,9.6 nM
same,"inhibition at 10 min, 10 µM",CYP2D6,28%
CC12CC3CC(C)(C1)CC(N)(C3)C2 [memantine],patients who developed adverse effects,[1],seven out of 18
same,remission,[2],89%
same,response,[2],100%
FC(F)(CN1CCC(Nc2ncnc3[nH]ccc23)CC1)c1ccccn1 [C-1^A′],IC50,human NR1/NR2A,> 10000 nM
C[C@@H](CN1CCC(Cc2ccccc2)CC1)[C@@H](O)c1ccc(O)cc1 [Ro25-6981],efficacy in the Marble Burying Test,[3],modest efficacy
